Here are results for 9 compounds from ChEMBL document CHEMBL5465560, “Selectivity Literature for EUbOPEN Chemogenomic Library” (2024).

Structures are written as SMILES. Where only a bound is given, the exact number is not on record here.

In test [1] the target is 5'-AMP-activated protein kinase catalytic subunit alpha-1 (Homo sapiens, UniProt Q13131). Description: Selectivity interaction (Upstate Kinase Profiler service (Millipore)) EUB0000056c PRKAA1. The conditions noted are these: at 1 µM.
Test [2] has as its target Tyrosine-protein kinase ITK/TSK (Homo sapiens, UniProt Q08881). Description: Selectivity interaction (Enyzmatic assay) EUB0000601a ITK.
Test [3] concerns the target T1, Mitogen-activated protein kinase 12 (Homo sapiens) (UniProt P53778).
T1 sequence (whole entry): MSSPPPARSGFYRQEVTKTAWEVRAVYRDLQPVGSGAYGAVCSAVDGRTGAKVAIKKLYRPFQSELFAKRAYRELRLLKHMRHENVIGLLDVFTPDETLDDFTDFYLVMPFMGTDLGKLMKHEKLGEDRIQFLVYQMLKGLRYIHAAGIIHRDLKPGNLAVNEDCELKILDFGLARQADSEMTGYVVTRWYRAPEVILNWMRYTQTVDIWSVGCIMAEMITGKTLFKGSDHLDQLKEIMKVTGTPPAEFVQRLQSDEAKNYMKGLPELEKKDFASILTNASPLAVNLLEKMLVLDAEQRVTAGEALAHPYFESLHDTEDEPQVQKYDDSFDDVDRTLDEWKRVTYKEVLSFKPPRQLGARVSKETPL
The conditions noted are these: at 10 µM.

Test [4] concerns the target Vascular endothelial growth factor receptor 1 (Homo sapiens) (UniProt P17948). Description: Selectivity interaction (KinomeScan (DiscoverX)) EUB0001079a FLT1. The note with it: at 1 µM.
The target in test [5] is Macrophage-stimulating protein receptor (Homo sapiens, UniProt Q04912). Description: Selectivity interaction (KinomeScan (DiscoverX)) EUB0001079a MST1R. The conditions noted are these: at 1 µM.
The target of test [6] is Dual specificity tyrosine-phosphorylation-regulated kinase 1A (Homo sapiens, UniProt Q13627). The test can be described thus: Selectivity interaction (KinomeScan (DiscoverX)) EUB0000092b DYRK1A. The conditions noted are these: at 10 µM.
Test [7] has as its target Tyrosine-protein kinase HCK (Homo sapiens) (UniProt P08631). The test can be described thus: Selectivity interaction (KinomeScan (DiscoverX)) EUB0000695a HCK. The conditions noted are these: at 100 nM.
Test [8] addresses N-lysine methyltransferase SMYD2 (Homo sapiens) (UniProt Q9NRG4). The note with it: at 10 µM.
The target in test [9] is T2, Serine/threonine-protein kinase DCLK1 (Homo sapiens) (UniProt O15075).
T2 sequence (whole entry): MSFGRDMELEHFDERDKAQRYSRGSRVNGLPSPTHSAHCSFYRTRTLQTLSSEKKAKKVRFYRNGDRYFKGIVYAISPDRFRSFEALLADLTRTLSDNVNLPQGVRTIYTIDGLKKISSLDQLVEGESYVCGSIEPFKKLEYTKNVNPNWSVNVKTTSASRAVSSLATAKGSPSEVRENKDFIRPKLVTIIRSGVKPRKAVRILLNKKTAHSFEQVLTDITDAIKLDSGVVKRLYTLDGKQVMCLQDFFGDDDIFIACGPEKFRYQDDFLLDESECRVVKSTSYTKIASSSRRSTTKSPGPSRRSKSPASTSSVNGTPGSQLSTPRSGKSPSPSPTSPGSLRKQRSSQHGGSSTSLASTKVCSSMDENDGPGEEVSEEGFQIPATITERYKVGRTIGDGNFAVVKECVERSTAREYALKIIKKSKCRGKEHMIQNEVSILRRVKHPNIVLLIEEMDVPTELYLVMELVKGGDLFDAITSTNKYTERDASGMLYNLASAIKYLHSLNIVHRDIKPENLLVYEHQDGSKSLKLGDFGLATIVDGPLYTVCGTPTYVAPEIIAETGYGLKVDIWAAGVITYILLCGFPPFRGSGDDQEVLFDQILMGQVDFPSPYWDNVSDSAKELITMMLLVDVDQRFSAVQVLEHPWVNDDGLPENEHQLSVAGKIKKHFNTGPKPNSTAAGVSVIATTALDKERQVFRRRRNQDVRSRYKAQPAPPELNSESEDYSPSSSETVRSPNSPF
The test can be described thus: Selectivity interaction (Kinase panel (DSF assay)) EUB0001559a DCLK1. A general note: DSF heats the sample and reads unfolding from a dye or from intrinsic fluorescence.

Test [10] deals with T3, Dual specificity mitogen-activated protein kinase kinase 4 (Homo sapiens) (UniProt P45985).
T3 sequence (whole entry): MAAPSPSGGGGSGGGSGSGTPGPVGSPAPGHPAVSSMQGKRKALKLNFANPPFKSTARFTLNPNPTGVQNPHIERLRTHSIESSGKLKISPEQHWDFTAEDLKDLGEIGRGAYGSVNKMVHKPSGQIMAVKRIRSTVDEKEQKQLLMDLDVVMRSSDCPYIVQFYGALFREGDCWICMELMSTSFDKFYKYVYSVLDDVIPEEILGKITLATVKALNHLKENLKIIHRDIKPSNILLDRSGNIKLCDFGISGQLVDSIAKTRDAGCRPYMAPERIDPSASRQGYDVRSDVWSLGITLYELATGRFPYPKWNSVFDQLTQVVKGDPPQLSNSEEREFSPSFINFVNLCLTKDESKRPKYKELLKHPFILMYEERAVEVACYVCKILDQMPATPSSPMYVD
Description: Selectivity interaction (ActivX KiNativ screen (ex vivo kinase selectivity in human PBMCs)) EUB0001619a MAP2K4. Type of test: cell-based. The note with it: PBMC, at 1 µM.

Sequence of Macrophage-stimulating protein receptor (Q04912 25-304 limits assumed): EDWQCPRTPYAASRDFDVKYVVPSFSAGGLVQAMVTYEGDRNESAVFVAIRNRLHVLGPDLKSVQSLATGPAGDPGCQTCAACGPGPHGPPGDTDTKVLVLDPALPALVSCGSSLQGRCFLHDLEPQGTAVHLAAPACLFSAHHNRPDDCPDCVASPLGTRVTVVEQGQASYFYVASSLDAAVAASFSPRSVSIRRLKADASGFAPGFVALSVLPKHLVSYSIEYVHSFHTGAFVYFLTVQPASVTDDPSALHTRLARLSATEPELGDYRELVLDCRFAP
Sequence of Macrophage-stimulating protein receptor (Q04912 310-1400 limits assumed): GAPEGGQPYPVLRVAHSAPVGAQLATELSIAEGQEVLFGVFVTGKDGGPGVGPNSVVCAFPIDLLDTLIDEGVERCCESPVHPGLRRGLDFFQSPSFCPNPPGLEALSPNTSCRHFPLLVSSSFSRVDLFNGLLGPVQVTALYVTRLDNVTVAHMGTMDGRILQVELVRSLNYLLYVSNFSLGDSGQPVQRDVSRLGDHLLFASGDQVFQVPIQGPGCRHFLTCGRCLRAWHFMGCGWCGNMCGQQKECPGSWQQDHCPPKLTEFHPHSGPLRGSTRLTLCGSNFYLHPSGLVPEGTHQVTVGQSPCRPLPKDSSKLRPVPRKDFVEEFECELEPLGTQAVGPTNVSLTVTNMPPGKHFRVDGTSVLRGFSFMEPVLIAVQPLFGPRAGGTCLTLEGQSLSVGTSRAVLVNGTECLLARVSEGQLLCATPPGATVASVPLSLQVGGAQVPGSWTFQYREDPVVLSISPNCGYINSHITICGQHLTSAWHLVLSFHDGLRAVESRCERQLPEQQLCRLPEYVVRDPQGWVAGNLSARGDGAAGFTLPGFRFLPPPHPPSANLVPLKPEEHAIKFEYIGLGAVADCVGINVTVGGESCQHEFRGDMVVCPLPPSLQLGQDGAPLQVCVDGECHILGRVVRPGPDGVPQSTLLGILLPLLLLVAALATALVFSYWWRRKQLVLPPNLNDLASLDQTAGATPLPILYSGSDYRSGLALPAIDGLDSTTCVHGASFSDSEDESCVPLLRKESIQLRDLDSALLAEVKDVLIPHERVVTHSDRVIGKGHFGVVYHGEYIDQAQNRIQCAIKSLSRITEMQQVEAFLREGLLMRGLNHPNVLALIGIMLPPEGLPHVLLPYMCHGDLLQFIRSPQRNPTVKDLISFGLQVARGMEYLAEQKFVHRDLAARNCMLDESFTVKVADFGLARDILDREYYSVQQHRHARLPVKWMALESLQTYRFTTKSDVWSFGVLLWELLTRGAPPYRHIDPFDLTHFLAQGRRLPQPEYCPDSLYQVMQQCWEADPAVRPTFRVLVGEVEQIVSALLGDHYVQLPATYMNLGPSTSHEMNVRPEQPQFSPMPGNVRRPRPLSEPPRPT
Sequence of Tyrosine-protein kinase HCK (Homo sapiens) (P08631 2-526 limits assumed): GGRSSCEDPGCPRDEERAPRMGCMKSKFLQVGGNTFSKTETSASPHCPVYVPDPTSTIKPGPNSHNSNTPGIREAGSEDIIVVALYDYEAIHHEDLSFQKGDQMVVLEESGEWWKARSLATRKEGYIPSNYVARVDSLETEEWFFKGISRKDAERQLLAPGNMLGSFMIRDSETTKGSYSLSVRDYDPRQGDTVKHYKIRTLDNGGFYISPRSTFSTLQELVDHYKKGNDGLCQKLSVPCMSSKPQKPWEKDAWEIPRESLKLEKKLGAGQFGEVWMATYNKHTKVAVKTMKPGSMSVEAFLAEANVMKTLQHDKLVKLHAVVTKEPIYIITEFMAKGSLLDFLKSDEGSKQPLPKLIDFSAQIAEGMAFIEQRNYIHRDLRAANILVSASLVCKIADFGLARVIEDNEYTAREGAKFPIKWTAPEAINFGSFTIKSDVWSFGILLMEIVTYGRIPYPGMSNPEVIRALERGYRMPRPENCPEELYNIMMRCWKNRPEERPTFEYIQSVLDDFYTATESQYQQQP
Sequence of Vascular endothelial growth factor receptor 1 (Homo sapiens) (P17948 whole entry): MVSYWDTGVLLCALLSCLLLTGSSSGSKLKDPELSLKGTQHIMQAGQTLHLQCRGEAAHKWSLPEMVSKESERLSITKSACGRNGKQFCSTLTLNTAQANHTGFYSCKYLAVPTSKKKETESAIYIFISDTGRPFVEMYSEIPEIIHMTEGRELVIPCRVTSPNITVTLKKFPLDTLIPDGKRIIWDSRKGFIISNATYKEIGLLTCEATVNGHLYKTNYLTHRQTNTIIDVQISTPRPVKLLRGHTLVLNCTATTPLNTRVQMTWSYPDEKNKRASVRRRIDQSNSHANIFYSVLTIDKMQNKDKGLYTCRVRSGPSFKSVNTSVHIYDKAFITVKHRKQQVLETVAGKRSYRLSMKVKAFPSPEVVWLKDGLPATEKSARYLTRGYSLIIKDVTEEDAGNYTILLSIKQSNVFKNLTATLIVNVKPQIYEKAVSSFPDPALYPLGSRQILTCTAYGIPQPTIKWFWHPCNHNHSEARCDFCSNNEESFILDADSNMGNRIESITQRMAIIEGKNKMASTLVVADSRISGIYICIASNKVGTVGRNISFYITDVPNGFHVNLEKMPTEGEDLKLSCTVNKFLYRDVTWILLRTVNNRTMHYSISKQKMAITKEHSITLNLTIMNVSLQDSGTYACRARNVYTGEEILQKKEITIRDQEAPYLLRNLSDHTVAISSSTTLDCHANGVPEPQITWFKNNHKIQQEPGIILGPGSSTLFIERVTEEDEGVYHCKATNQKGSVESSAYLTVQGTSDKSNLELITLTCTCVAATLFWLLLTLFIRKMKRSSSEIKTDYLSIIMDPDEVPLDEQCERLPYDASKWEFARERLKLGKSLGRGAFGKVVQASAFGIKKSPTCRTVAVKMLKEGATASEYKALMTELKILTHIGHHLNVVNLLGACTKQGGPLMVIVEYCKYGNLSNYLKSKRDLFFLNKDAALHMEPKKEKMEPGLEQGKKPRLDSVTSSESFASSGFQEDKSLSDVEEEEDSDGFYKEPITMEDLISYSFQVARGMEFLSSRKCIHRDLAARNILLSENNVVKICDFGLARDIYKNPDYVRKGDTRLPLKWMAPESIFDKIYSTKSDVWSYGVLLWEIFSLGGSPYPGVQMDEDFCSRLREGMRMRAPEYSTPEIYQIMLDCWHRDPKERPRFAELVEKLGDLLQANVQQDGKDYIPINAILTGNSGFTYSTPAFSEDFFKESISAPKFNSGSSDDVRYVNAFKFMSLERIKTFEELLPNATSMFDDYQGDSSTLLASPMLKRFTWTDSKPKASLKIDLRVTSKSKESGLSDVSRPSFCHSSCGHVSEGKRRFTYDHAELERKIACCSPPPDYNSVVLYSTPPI
Sequence of 5'-AMP-activated protein kinase catalytic subunit alpha-1 (Q13131 whole entry, looked up): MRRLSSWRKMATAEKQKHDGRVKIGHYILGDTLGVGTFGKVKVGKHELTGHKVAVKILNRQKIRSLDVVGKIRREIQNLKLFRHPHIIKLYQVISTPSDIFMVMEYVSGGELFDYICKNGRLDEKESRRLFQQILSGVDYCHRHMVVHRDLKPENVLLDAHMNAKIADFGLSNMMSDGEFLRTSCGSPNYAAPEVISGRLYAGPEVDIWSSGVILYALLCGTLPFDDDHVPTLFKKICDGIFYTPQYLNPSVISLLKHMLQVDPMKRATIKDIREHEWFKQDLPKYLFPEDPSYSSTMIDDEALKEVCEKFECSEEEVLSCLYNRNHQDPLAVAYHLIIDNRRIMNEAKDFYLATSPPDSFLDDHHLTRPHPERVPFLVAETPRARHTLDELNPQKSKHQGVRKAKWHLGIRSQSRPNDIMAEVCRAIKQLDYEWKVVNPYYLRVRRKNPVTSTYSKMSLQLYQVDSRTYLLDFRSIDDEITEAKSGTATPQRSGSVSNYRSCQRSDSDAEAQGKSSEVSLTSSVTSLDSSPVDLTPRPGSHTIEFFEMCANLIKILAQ
Sequence of Tyrosine-protein kinase ITK/TSK (Q08881 whole entry): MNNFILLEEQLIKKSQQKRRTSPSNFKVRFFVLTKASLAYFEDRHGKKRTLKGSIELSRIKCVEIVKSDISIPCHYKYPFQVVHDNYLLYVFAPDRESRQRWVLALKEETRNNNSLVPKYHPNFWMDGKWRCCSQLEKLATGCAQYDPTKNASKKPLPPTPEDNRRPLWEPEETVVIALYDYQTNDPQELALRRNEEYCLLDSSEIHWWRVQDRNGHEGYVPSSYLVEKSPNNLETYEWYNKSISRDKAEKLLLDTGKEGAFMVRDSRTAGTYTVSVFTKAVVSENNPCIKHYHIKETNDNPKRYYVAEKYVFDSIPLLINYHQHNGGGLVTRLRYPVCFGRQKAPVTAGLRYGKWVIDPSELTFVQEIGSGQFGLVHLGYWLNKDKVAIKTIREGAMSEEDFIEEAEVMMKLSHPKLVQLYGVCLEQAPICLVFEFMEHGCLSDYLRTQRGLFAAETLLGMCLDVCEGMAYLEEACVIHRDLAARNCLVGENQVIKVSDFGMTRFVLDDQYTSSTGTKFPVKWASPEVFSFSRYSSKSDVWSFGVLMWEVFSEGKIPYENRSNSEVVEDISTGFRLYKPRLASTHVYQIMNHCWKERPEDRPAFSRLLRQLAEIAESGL
Sequence of N-lysine methyltransferase SMYD2 (Homo sapiens) (Q9NRG4 whole entry): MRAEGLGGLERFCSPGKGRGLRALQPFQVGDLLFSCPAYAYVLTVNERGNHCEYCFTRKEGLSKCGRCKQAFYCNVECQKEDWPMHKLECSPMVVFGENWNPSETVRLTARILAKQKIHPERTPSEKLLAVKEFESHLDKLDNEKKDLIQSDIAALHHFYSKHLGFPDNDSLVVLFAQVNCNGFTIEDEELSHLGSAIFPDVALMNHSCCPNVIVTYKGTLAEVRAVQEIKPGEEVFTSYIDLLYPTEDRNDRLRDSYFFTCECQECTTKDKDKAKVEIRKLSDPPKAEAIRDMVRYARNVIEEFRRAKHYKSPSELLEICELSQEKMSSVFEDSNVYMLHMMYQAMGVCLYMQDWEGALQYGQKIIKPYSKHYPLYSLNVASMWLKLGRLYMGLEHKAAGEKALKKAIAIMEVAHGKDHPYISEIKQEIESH

Take `Cc1ccc(-c2ccc3c(ccc4sc5c(c43)NC[C@@H](C)NC5=O)n2)cn1`: the % of inhibition in [1] turned out to be 77%.

Usually IC50 stands for the concentration needed to halve the response being measured. Turning to `CCc1cc(Nc2nccc(-c3c(-c4ccc(OC)c(C(=O)Nc5c(F)cccc5F)c4)nc4ccccn34)n2)c(OC)cc1N1CCC(N2CCN(S(C)(=O)=O)CC2)CC1`, the IC50 in [2] was over 25 µM.

As to `CCN(CC)CCCCNc1ncc2cc(-c3cc(OC)cc(OC)c3)c(NC(=O)NC(C)(C)C)nc2n1`, the % of control in test [3] was determined as 100%.

Turning to `Nc1cnc(N2CCc3cc(S(=O)(=O)Nc4c(F)cc(Cl)cc4F)cc(N4CCCC4=O)c32)nc1` [TP-020n], the % of control in [4] was determined as 93%; in test [5] it was 98%.

Consider `CCC(=O)N1CCN(c2ccc(-n3c(=O)ccc4cnc5ccc(-c6cnc7ccccc7c6)cc5c43)cc2C(F)(F)F)CC1`, for which the % of control in test [6] worked out at 71%.

On to `Cc1cc(F)c(C(=O)Nc2cccc(-c3nncn3C(C)C)n2)cc1-n1cnc(C2CC2)c1`, for which the % of control in [7] came to 100%.

In test [8], `CNCCN1CCC(c2cc(CN(C)C(=O)c3cccc(Oc4ccccc4)c3)ccn2)CC1` returned a % activity of over 90%.

Regarding `CN(C(=O)c1cnn2cccnc12)c1cc2c(cc1N1CCOCC1)C(=O)N(C[C@@H](F)C(C)(C)O)C2`, the dTM in test [9] is -0.6 K.

Compound `N#Cc1cccc(-c2c[nH]c3ncnc(N4CCOCC4)c23)c1` displayed a % of inhibition in test [10] of 19%.
